# Measurements: patent publication US11464823B2, “Curcumin carbon quantum dots and use thereof” (priority 2018, dated 2022)
# Experiments:
# [1] = test system: EV71; experiment: Cytopathic effect (CPE) inhibition assay, RD cells infected with EV71 (pre-, post-, co-treatment); assay type: cell-based, human rhabdomyosarcoma (RD) cells
# Description: RD cells were seeded at 7.5×10^3 cells/well in 96-well plates and incubated for 24 hours at 37° C. To analyze how Cur-CQDs affect the infectivity of EV71, Cur-CQDs pre-treatment, post-treatment, co-treatment assay was taken as follows. For pre-treatment, Cur-CQDs were pre-incubated with RD cells at 37° C. for 24 hours and then cultured with EV71 for 48 hours at 37° C. For post-treatment, EV71 were pre-incubated with RD cells at 37° C. for 24 hours, after that, cell monolayers were washed with PBS to remove non-adherent virus and further incubated with DMEM (containing 2% FBS and Cur-CQDs) at 37° C. for 48 hours. For co-treatment, EV71 were pre-incubated with series of CQDcurs at 37° C. for 1 hour, then cultured with RD cells for 72 hours at 37° C. Negative (cells only) and positive (cells infected with EV71 without Cur-CQDs) controls were set as well.
# [2] = Cytotoxicity / cell viability (Presto blue); assay type: cell-based; settings: human, RD cells
# Description: The in vitro cellular viability of the as-prepared Cur-CQDs was evaluated using the Presto blue. First, approximately 7.5×10^3 RD cells/well were seeded in 96-cell plates and were fed with DMEM containing 10% fetal bovine serum (FBS). After 24 hours of incubation in a humidified incubator with 5% CO2 at 37° C., the medium was removed from each well, and RD cells were washed with phosphate buffered saline (PBS, pH 7.4). Then, sample solutions (Cur-CQDs with different concentrations) or the control solutions were added in and incubated with cells for 24 hours to 72 hours. Each concentration was tested with 4 sets of parallel samples. After that, the culture medium was replaced with Presto blue and incubated for another 1 hour at 37° C. Finally, fluorescence was measured at an excitation wavelength at 540 nm and an emission wavelength at 590 nm with a BioTek Microplate Reader. The viability of cells was expressed as the percentage of control untreated cells (100%).
smiles,measurement,setting,value
COc1cc(/C=C/C(=O)CC(=O)/C=C/c2ccc(O)c(OC)c2)ccc1O [Curcumin],EC50,"[1]; Enterovirus A, EV71 in RD cell, read-out: Antiviral activity EC50 (concentration at which inhibition rate of CPE reaches halfway between baseline and maximum)",> 200 µg/mL
same,selectivity ratio,[1]; human,0.1
same,CC50,[2],> 13 µg/mL
